Among the data in patent US11306078B2, “Piperidine CXCR7 receptor modulators” (IDORSIA PHARMACEUTICALS LTD., priority 2016, dated 2022) are IC50 values, retold here.

The target of this test is human chemokine receptor CXCR7 (Homo sapiens (Human), UniProt P25106). Put plainly: Tango CXCR7-bla U2OS beta-arrestin recruitment assay (beta-lactamase reporter, FRET), antagonism of CXCL12/SDF1-α.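 Note: compounds preincubated 15 min before CXCL12 addition, then 22 h at 37 °C, FRET emission ratio read with CCF4-AM substrate after 2 h.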 Format: cell-based. The note with it: antagonistic effect on CXCR7; Tango CXCR7-bla U2OS cells, CXCL12/SDF1-α at its EC80.
Chain of human chemokine receptor CXCR7 (P25106 whole entry): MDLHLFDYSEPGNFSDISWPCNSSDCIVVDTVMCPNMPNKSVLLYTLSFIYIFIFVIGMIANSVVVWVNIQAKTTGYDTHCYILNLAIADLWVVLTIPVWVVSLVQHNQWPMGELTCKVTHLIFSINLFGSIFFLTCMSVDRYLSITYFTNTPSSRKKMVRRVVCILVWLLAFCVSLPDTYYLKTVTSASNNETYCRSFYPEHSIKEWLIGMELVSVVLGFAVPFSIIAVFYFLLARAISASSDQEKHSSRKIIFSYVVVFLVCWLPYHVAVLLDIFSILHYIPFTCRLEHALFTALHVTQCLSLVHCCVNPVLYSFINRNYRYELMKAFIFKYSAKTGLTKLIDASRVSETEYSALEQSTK
By IC50 is commonly meant the point on the concentration scale where inhibition reaches its midpoint. With `CN(C)C(=O)[C@@H]1CN(CC2CC2)CC[C@H]1NC(=O)c1cn(-c2ccc(F)cc2F)nn1` (racemic) [Example 1.097, rac-(3R*,4R*)-1-Cyclopropylmethyl-4-{[1-(2,4-difluoro-phenyl)-1H-[1,2,3]triazole-4-carbonyl]-amino}-piperidine-3-carboxylic acid dimethylamide], half-maximal inhibition (IC50) was put at 442 nM. Turning to `O=C(N[C@H]1CCN(CC2CC2)C[C@@H]1C(=O)N(CCF)Cc1ccccc1)c1cc(-c2ccc(F)cc2F)on1` [Example 4.058], the IC50 is 90 nM.

`O=C(N[C@@H]1CCN(CC2CC2)C[C@H]1C(=O)NC1(c2ncccn2)CC1)c1cc(-c2c(F)cc(F)cc2F)on1` (single isomer, unassigned) [Example 3.020a, (3R*,4R*)-1-Cyclopropylmethyl-4-{[5-(2,4,6-trifluoro-phenyl)-isoxazole-3-carbonyl]-amino}-piperidine-3-carboxylic acid (1-pyrimidin-2-yl-cyclopropyl)-amide]: inhibition was half-maximal at 271 nM (IC50). Then `C[C@@H](NC(=O)[C@H]1CN(C2CCCCC2)CC[C@@H]1NC(=O)c1cc(-c2ccc(F)cc2F)no1)c1ccccn1` (single isomer, unassigned) [Example 1.125a, (3S,4S)-1-Cyclohexyl-4-{[3-(2,4-difluoro-phenyl)-isoxazole-5-carbonyl]-amino}-piperidine-3-carboxylic acid ((R)-1-pyridin-2-yl-ethyl)-amide or (3R,4R)-1-Cyclohexyl-4-{[3-(2,4-difluoro-phenyl)-isoxazole-5-carbonyl]-amino}-piperidine-3-carboxylic acid ((R)-1-pyridin-2-yl-ethyl)-amide], with 30 nM; and `O=C(N[C@H]1CCN(CC2CC2)C[C@@H]1C(=O)NC1(c2ccccc2)CCC1)c1cc(-c2ccc(F)cc2F)on1` [Example 4.057], with 13 nM; and `O=C(N[C@@H]1CCN(C2CCC2)C[C@H]1C(=O)NC1(Cc2ccccc2)COC1)c1cc(-c2ccc(F)cc2F)on1` [Example 4.085], with 61 nM. Then `CN(C(=O)[C@@H]1CN(C2CCCCC2)CC[C@H]1NC(=O)c1cc(-c2ccc(F)cc2F)on1)C1CC1` (racemic) [Example 1.013, rac-(3R*,4R*)-1-Cyclohexyl-4-{[5-(2,4-difluoro-phenyl)-isoxazole-3-carbonyl]-amino}-piperidine-3-carboxylic acid cyclopropyl-methyl-amide], with 238 nM; and `Cc1cccc(CCNC(=O)[C@@H]2CN(C3CCCCC3)CC[C@H]2NC(=O)c2cc(-c3ccc(F)cc3F)on2)c1` (racemic) [Example 1.066, rac-(3R*,4R*)-1-Cyclohexyl-4-{[5-(2,4-difluoro-phenyl)-isoxazole-3-carbonyl]-amino}-piperidine-3-carboxylic acid (2-m-tolyl-ethyl)-amide], with 16 nM; and `CN(C)C(=O)[C@@H]1CN(C2CCCCC2)CC[C@H]1NC(=O)c1nnc(-c2ccc(F)cc2F)o1` (single isomer, unassigned) [Example 3.003a, (3R*,4R*)-1-Cyclohexyl-4-{[5-(2,4-difluoro-phenyl)-[1,3,4]oxadiazole-2-carbonyl]-amino}-piperidine-3-carboxylic acid dimethylamide], with 771 nM. The figure for `C[C@@H](NC(=O)[C@@H]1CN(C2CCCCC2)CC[C@H]1NC(=O)c1cc(-c2ccc(F)cc2F)on1)C1CCC1` (relative stereo) [Example 1.091, (3R*,4R*)-1-Cyclohexyl-4-{[5-(2,4-difluoro-phenyl)-isoxazole-3-carbonyl]-amino}-piperidine-3-carboxylic acid ((R)-1-cyclobutyl-ethyl)-amide] is 103 nM; for `C[C@@H]1CCC[C@H]1N1CC[C@@H](NC(=O)c2cc(-c3c(F)cc(F)cc3F)on2)[C@H](C(=O)N[C@H](C)c2ccccn2)C1` (relative stereo) [Example 1.124, (3R*,4R*)-1-((1RS,2RS)-2-Methyl-cyclopentyl)-4-{[5-(2,4,6-trifluoro-phenyl)-isoxazole-3-carbonyl]-amino}-piperidine-3-carboxylic acid ((R)-1-pyridin-2-yl-ethyl)-amide] it is 16 nM; for `C[C@@H](NC(=O)[C@@H]1CN(C2CCCCC2)CC[C@H]1NC(=O)c1cc(-c2ccc(F)cc2F)on1)C(C)(C)C` (relative stereo) [Example 1.093, (3R*,4R*)-1-Cyclohexyl-4-{[5-(2,4-difluoro-phenyl)-isoxazole-3-carbonyl]-amino}-piperidine-3-carboxylic acid ((R)-1,2,2-trimethyl-propyl)-amide] it is 867 nM.

On to `CN(C)CCN(C)C(=O)[C@@H]1CN(C2CCCCC2)CC[C@H]1NC(=O)c1cc(-c2ccc(F)cc2F)on1` (racemic) [Example 1.018, rac-(3R*,4R*)-1-Cyclohexyl-4-{[5-(2,4-difluoro-phenyl)-isoxazole-3-carbonyl]-amino}-piperidine-3-carboxylic acid (2-dimethylamino-ethyl)-methyl-amide], for which the half-maximal inhibitory concentration (IC50) was 317 nM. Compound `O=C(N[C@@H]1CCN(C2CCCCC2)C[C@H]1C(=O)NCc1ccncc1)c1cc(-c2ccc(F)cc2F)on1` [Example 1.05] showed a half-inhibitory concentration (IC50) of 223 nM. As for `CN(C)C(=O)[C@@H]1CN(C2CCCCC2)CC[C@H]1NC(=O)c1cn(-c2ccc(F)cc2F)nn1` (single isomer, unassigned) [Example 1.095a, (3R,4R)-1-Cyclohexyl-4-{[1-(2,4-difluoro-phenyl)-1H-[1,2,3]triazole-4-carbonyl]-amino}-piperidine-3-carboxylic acid dimethylamide or (3S,4S)-1-Cyclohexyl-4-{[1-(2,4-difluoro-phenyl)-1H-[1,2,3]triazole-4-carbonyl]-amino}-piperidine-3-carboxylic acid dimethylamide], the IC50 turned out to be 129 nM. The compound `O=C(N[C@@H]1CCN(C2CCCCC2)C[C@H]1C(=O)NC1CCCC1)c1cc(-c2ccc(F)cc2F)on1` (racemic) [Example 1.003, rac-(3R*,4R*)-1-Cyclohexyl-4-{[5-(2,4-difluoro-phenyl)-isoxazole-3-carbonyl]-amino}-piperidine-3-carboxylic acid cyclopentylamide] had an IC50 of 564 nM. In the case of `O=C(N[C@@H]1CCN(C2CCCCC2)C[C@H]1C(=O)NCC(F)F)c1cc(-c2ccc(F)cc2F)on1` (racemic) [Example 1.026, rac-(3R*,4R*)-1-Cyclohexyl-4-{[5-(2,4-difluoro-phenyl)-isoxazole-3-carbonyl]-amino}-piperidine-3-carboxylic acid (2,2-difluoro-ethyl)-amide], the half-inhibitory concentration (IC50) was 627 nM.

Compound `C[C@@H](NC(=O)[C@@H]1CN(C2CCCC2)CC[C@H]1NC(=O)c1cn(-c2ccc(F)cc2F)nn1)C1CCC1` (relative stereo) [Example 1.135, (3R*,4R*)-1-Cyclopentyl-4-{[1-(2,4-difluoro-phenyl)-1H-[1,2,3]triazole-4-carbonyl]-amino}-piperidine-3-carboxylic acid ((R)-1-cyclobutyl-ethyl)-amide] displayed an IC50 of 592 nM. The figure for `Cc1nnc(C(C)NC(=O)[C@@H]2CN(C3CCCCC3)CC[C@H]2NC(=O)c2cc(-c3ccc(F)cc3F)on2)o1` (relative stereo) [Example 1.085, (3R*,4R*)-1-Cyclohexyl-4-{[5-(2,4-difluoro-phenyl)-isoxazole-3-carbonyl]-amino}-piperidine-3-carboxylic acid [(1RS)-1-(5-methyl-[1,3,4]oxadiazol-2-yl)-ethyl]-amide] is 268 nM; for `C[C@@H](NC(=O)[C@H]1CN(C2CCC2)CC[C@@H]1NC(=O)c1cc(-c2ccc(F)cc2F)on1)c1ncccn1` [Example 4.084b] it is 77 nM; for `CCOCCN(C)C(=O)[C@@H]1CN(C2CCCCC2)CC[C@H]1NC(=O)c1cc(-c2ccc(F)cc2F)on1` (racemic) [Example 1.019, rac-(3R*,4R*)-1-Cyclohexyl-4-{[5-(2,4-difluoro-phenyl)-isoxazole-3-carbonyl]-amino}-piperidine-3-carboxylic acid (2-ethoxy-ethyl)-methyl-amide] it is 145 nM. `C[C@@H](NC(=O)[C@@H]1CN(CC2CC2)CC[C@H]1NC(=O)c1cc(-c2c(F)cc(F)cc2F)on1)C1CCC1` (single isomer, unassigned) [Example 1.139b, (3R*,4R*)-1-Cyclopropylmethyl-4-{[5-(2,4,6-trifluoro-phenyl)-isoxazole-3-carbonyl]-amino}-piperidine-3-carboxylic acid ((R)-1-cyclobutyl-ethyl)-amide] registered an IC50 of 29 nM. `O=C(N[C@H]1CCN(CC2CC2)C[C@@H]1C(=O)NC1(c2cccc(Cl)c2)CC1)c1cc(-c2ccc(F)cc2F)on1` [Example 4.068]: the IC50 came to 1 nM. Turning to `CCOCC(C)NC(=O)[C@@H]1CN(C2CCCCC2)CC[C@H]1NC(=O)c1cc(-c2ccc(F)cc2F)on1` (relative stereo) [Example 1.083, (3R*,4R*)-1-Cyclohexyl-4-{[5-(2,4-difluoro-phenyl)-isoxazole-3-carbonyl]-amino}-piperidine-3-carboxylic acid ((1RS)-2-ethoxy-1-methyl-ethyl)-amide], the IC50 was found to be 76 nM.

On to `O=C(N[C@@H]1CCN(C2CCC2)C[C@H]1C(=O)NC1(c2ccc(F)cc2)COC1)c1cc(-c2ccc(F)cc2F)on1` [Example 4.089], for which the IC50 was determined as 299 nM. Compound `COC(=O)C1CN(C2CCCCC2)CCC1NC(=O)c1noc(-c2ccc(F)c(F)c2)n1` (centres unmarked) [BB 1.18c] registered an IC50 of 119 nM. Then `CC(C)N1CC[C@@H](NC(=O)c2cc(-c3ccc(F)cc3F)on2)[C@H](C(=O)N(C)C)C1` (racemic) [Example 2.001, rac-(3R*,4R*)-4-{[5-(2,4-Difluoro-phenyl)-isoxazole-3-carbonyl]-amino}-1-isopropyl-piperidine-3-carboxylic Acid Dimethylamide], with 209 nM. The figure for `CN(C)C(=O)[C@@H]1CN(C2CCCC(C)(C)C2)CC[C@H]1NC(=O)c1cc(-c2ccc(F)cc2F)on1` (some centres unmarked) [Example 2.024] is 101 nM; for `O=C(N[C@@H]1CCN(C2CCCCC2)C[C@H]1C(=O)NCc1c[nH]cn1)c1cc(-c2ccc(F)cc2F)on1` (racemic) [Example 1.043, rac-(3R*,4R*)-1-Cyclohexyl-4-{[5-(2,4-difluoro-phenyl)-isoxazole-3-carbonyl]-amino}-piperidine-3-carboxylic acid (1H-imidazol-4-ylmethyl)-amide] it is 843 nM.
